Data: PubChem BioAssay (NCI)
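96-well plates; 48 h exposure; 5 concentrations. Endpoints by linear interpolation between flanking doses. Not reached: highest tested concentration assigned. At the TGI there is no net growth.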

Tests used:
Assay in all cases: NCI-60 cell line screen, 48 h
786-0 renal = system: 786-0 renal
A498 renal = system: A498 renal
A549 NSCLC = system: A549 NSCLC
ACHN renal = system: ACHN renal
BT-549 breast = system: BT-549 breast
CAKI-1 renal = system: CAKI-1 renal
CCRF-CEM leukemia = system: CCRF-CEM leukemia
COLO 205 colon = system: COLO 205 colon
DU-145 prostate = system: DU-145 prostate
EKVX NSCLC = system: EKVX NSCLC
HCC-2998 colon = system: HCC-2998 colon
HCT-116 colon = system: HCT-116 colon
HCT-15 colon = system: HCT-15 colon
HL-60(TB) leukemia = system: HL-60(TB) leukemia
HOP-62 NSCLC = system: HOP-62 NSCLC
HOP-92 NSCLC = system: HOP-92 NSCLC
HS 578T breast = system: HS 578T breast
HT29 colon = system: HT29 colon
IGROV1 ovarian = system: IGROV1 ovarian
K-562 leukemia = system: K-562 leukemia
KM12 colon = system: KM12 colon
LOX IMVI melanoma = system: LOX IMVI melanoma
M14 melanoma = system: M14 melanoma
MALME-3M melanoma = system: MALME-3M melanoma
MCF7 breast = system: MCF7 breast
MDA-MB-231 breast = system: MDA-MB-231 breast
MDA-MB-435 = system: MDA-MB-435
MDA-N = system: MDA-N
MOLT-4 leukemia = system: MOLT-4 leukemia
NCI-H226 lung = system: NCI-H226 lung
NCI-H23 lung = system: NCI-H23 lung
NCI-H460 lung = system: NCI-H460 lung
NCI-H522 lung = system: NCI-H522 lung
NCI/ADR-RES ovarian = system: NCI/ADR-RES ovarian
OVCAR-3 ovarian = system: OVCAR-3 ovarian
OVCAR-4 ovarian = system: OVCAR-4 ovarian
OVCAR-5 ovarian = system: OVCAR-5 ovarian
OVCAR-8 ovarian = system: OVCAR-8 ovarian
PC-3 prostate = system: PC-3 prostate
SF-268 CNS = system: SF-268 CNS
SF-295 CNS = system: SF-295 CNS
SF-539 CNS = system: SF-539 CNS
SK-MEL-28 melanoma = system: SK-MEL-28 melanoma
SK-MEL-5 melanoma = system: SK-MEL-5 melanoma
SK-OV-3 ovarian = system: SK-OV-3 ovarian
SN12C renal = system: SN12C renal
SNB-19 CNS = system: SNB-19 CNS
SR leukemia = system: SR leukemia
SW-620 colon = system: SW-620 colon
T-47D breast = system: T-47D breast
TK-10 renal = system: TK-10 renal
U251 CNS = system: U251 CNS
UACC-257 melanoma = system: UACC-257 melanoma
UACC-62 melanoma = system: UACC-62 melanoma
UO-31 renal = system: UO-31 renal

O=C1C=C(N2CCN(c3ncccn3)CC2)C(=O)c2c(O)ccc(O)c21
TGI (786-0 renal): > 100 µM | TGI (A498 renal): > 100 µM | TGI (A549 NSCLC): > 100 µM | TGI (ACHN renal): > 100 µM | TGI (BT-549 breast): > 100 µM | TGI (CAKI-1 renal): > 100 µM | TGI (CCRF-CEM leukemia): > 100 µM | TGI (COLO 205 colon): > 100 µM | TGI (DU-145 prostate): > 100 µM | TGI (EKVX NSCLC): > 100 µM | TGI (HCC-2998 colon): > 100 µM | TGI (HCT-116 colon): > 100 µM | TGI (HCT-15 colon): > 100 µM | TGI (HL-60(TB) leukemia): > 100 µM | TGI (HOP-62 NSCLC): > 100 µM | TGI (HOP-92 NSCLC): > 100 µM | TGI (HS 578T breast): > 100 µM | TGI (HT29 colon): > 100 µM | TGI (IGROV1 ovarian): > 100 µM | TGI (K-562 leukemia): > 100 µM | TGI (KM12 colon): > 100 µM | TGI (LOX IMVI melanoma): > 100 µM | TGI (M14 melanoma): > 100 µM | TGI (MALME-3M melanoma): 46.6 µM | TGI (MCF7 breast): > 100 µM | TGI (MDA-MB-231 breast): > 100 µM | TGI (MDA-MB-435): 24.3 µM | TGI (MDA-N): 31.3 µM | TGI (MOLT-4 leukemia): > 100 µM | TGI (NCI-H226 lung): > 100 µM | TGI (NCI-H23 lung): > 100 µM | TGI (NCI-H460 lung): > 100 µM | TGI (NCI-H522 lung): > 100 µM | TGI (NCI/ADR-RES ovarian): > 100 µM | TGI (OVCAR-3 ovarian): > 100 µM | TGI (OVCAR-4 ovarian): > 100 µM | TGI (OVCAR-5 ovarian): > 100 µM | TGI (OVCAR-8 ovarian): > 100 µM | TGI (PC-3 prostate): > 100 µM | TGI (SF-268 CNS): > 100 µM | TGI (SF-295 CNS): > 100 µM | TGI (SF-539 CNS): 55.7 µM | TGI (SK-MEL-28 melanoma): > 100 µM | TGI (SK-MEL-5 melanoma): > 100 µM | TGI (SK-OV-3 ovarian): > 100 µM | TGI (SN12C renal): > 100 µM | TGI (SNB-19 CNS): > 100 µM | TGI (SR leukemia): > 100 µM | TGI (SW-620 colon): > 100 µM | TGI (T-47D breast): > 100 µM | TGI (TK-10 renal): > 100 µM | TGI (U251 CNS): > 100 µM | TGI (UACC-257 melanoma): > 100 µM | TGI (UACC-62 melanoma): > 100 µM | TGI (UO-31 renal): > 100 µM
